In one data set the test system is S. aureus ATCC 29213. The data set can be described thus: microbe, parasite or virus in culture. As to the method:
MIC determinations were performed using the broth microdilution method and in line with CLSI guidelines M07 and M100 (refs. [37],[38]). Bacterial inocula were prepared by diluting a 0.5 McFarland suspension in CAMHB or lysogeny broth (LB) specifically for A. baylyi isolates. […] MIC values of all of the tested antibiotics were read as the lowest compound concentration inhibiting bacterial growth by naked eye or beyond which the OD600 ceased to decrease.

A further data set relates to HEK293 cells. The data set can be described thus: Cell-viability assay (CellTiterGlo). The data set is classed as cell-based. To be noted: Homo sapiens, 24 h, 37 °C, 3.125–100 μM, n = 2. As to the method:
Compounds were prepared in serial dilutions (3.125–100 μM in 1% DMSO) and transferred to 384-well plates together with a positive (Staurosporine) and a negative (no compound) control. In total, 25 μl of HEK293 cells (ATCC; verified by short tandem repeat PCR and mycoplasma negative) (50,000 cells per ml) were added in either low-serum-containing (0.5% fetal bovine serum (FBS)) or high-serum-containing (12.5% FBS, 1% BSA) medium (Dulbecco’s modified Eagle medium (DMEM), glucose, L-glutamine). The plates were incubated for 24 h at 37 °C and a mixture of CellTiterGlo and DMEM was added to the plates. After incubation at room temperature, the luminescence signal was read using a BioTeK reader and a calculated IC50 was derived from the data.
On the technique in general: Cellular ATP, detected with luciferase, serves as a proxy for viable cell number.

The target in the next data set is T1, Muscarinic receptor M2 (Homo sapiens, UniProt P08172).
T1 construct: purchased Eurofins CEREP SA
T1 sequence (P08172 1-466): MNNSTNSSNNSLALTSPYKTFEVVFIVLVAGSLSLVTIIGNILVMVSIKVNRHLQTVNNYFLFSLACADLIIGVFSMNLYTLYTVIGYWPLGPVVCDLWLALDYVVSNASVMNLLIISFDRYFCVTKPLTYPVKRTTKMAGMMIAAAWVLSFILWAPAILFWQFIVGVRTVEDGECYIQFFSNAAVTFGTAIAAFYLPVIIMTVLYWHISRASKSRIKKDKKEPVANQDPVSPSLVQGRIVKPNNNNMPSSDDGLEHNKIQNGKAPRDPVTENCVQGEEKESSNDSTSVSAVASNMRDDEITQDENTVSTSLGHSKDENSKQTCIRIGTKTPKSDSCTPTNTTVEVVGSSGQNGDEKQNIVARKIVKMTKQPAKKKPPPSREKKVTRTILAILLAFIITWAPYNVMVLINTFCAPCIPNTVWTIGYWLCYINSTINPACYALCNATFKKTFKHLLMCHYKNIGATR
Briefly: Off-target screening (CEREP). The data set is classed as binding. The settings on record: 10 µM, duplicates; read-out: percent inhibition. The method in brief: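 Compounds are tested at a fixed 10 µM in duplicate, with no concentration–response. Activity is expressed as percent inhibition of either radioligand signal or control enzymatic activity.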

A further data set deals with T2, Acetylcholinesterase (Homo sapiens, UniProt P22303).
T2 construct: purchased Eurofins CEREP SA
Briefly: Off-target screening (CEREP). Format: biochemical. The settings on record: 10 µM, duplicates; read-out: percent inhibition. As to the method:
(§1) Supplementary Table 1 │ Off-target activity screening f or MCP compou nds […]
(§2) The assays given in the table above were conducted at Eurofins CEREP S A (Celle-Lévescault, France) and were run as single point measurements in duplicates in the presence of 10 µ M of the test compound and reported as percent inhibition of the radioligand signal or control enzymatic activity. n.d., not

In data set [1] the target is T3, Angiotensin converting enzyme (Homo sapiens, UniProt P12821).
T3 construct: purchased Eurofins CEREP SA
Briefly: Off-target screening (CEREP). The settings on record: 10 µM, duplicates; read-out: percent inhibition. Format: biochemical. As to the method: as §1, §2

The next data set has as its system HIV-1 protease. Briefly: Off-target screening (CEREP). To be noted: 10 µM, duplicates. Format: biochemical. As to the method:
as §1, §2

A further data set concerns the target T4, Monoamine oxidase-A (Homo sapiens, UniProt P21397).
T4 construct: purchased Eurofins CEREP SA
T4 sequence (P21397 1-527): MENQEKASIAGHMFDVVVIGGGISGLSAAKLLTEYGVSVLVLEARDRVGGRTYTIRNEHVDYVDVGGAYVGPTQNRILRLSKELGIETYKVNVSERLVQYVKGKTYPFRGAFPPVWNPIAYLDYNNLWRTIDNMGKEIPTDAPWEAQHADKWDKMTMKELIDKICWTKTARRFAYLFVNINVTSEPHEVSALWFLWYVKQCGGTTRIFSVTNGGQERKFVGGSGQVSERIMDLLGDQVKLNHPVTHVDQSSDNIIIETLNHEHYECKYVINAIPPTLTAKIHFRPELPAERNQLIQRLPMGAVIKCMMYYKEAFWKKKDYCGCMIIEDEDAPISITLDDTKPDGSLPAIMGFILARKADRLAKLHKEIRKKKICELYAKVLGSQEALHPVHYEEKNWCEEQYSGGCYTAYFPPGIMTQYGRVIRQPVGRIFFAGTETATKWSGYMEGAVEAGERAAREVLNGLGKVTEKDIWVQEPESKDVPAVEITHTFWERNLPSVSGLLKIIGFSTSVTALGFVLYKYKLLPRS
The data set can be described thus: Off-target screening (CEREP). The settings on record: 10 µM, duplicates; read-out: percent inhibition. The data set is classed as biochemical. As to the method:
as §1, §2

For another data set, the target named is T5, Phosphodiesterase 4D2 (Homo sapiens, UniProt Q08499).
T5 construct: purchased Eurofins CEREP SA
The data set can be described thus: Off-target screening (CEREP). Format: biochemical. The settings on record: 10 µM, duplicates; read-out: percent inhibition. As to the method: as §1, §2

Data set [2] deals with GABA-A (benzodiazapine binding site). Briefly: Off-target screening (CEREP). The settings on record: 10 µM, duplicates. Set-up: species or system rat. As to the method:
as §1, §2

The test system of data set [3] is Nicotinic receptor, muscle. The data set can be described thus: Off-target screening (CEREP). The data set is classed as binding, human. The settings on record: 10 µM, duplicates. As to the method:
as §1, §2

For data set [4], the system named is Nicotinic receptor, neuronal. Briefly: Off-target screening (CEREP). Format: binding, human. To be noted: 10 µM, duplicates. As to the method:
as §1, §2

The test system of another data set is C. albicans ATCC 90028. Briefly: microbe, parasite or virus in culture. To be noted: Candida albicans, ATCC90028.
The mark [5] stands for this setting: Staphylococcus aureus, ATCC29213, CAMHB, mode of at least three replicates (RO7036668 one replicate).

SMILES strings stand for the structures. In brackets after ≈: the same amount, converted by molar mass.

The text below walks through data of publication PMC10794144, “A novel antibiotic class targeting the lipopolysaccharide transporter” (Nature, 2024).

T2 sequence (P22303 32-614): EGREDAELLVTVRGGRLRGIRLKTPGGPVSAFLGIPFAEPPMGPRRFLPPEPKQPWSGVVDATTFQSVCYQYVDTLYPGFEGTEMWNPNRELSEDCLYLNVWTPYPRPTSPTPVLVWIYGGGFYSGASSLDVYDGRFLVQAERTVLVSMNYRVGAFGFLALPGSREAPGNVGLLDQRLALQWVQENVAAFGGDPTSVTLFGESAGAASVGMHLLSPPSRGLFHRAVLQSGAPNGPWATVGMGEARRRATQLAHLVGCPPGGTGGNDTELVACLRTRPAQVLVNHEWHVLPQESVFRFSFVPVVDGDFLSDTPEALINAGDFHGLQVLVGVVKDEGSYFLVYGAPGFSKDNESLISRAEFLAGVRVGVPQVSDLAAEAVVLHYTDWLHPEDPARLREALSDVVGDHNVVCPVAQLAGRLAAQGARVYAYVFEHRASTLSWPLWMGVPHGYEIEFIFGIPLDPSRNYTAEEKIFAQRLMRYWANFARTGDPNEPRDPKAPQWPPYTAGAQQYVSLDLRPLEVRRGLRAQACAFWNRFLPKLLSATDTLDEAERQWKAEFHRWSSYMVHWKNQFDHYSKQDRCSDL
T3 sequence (P12821 30-1306): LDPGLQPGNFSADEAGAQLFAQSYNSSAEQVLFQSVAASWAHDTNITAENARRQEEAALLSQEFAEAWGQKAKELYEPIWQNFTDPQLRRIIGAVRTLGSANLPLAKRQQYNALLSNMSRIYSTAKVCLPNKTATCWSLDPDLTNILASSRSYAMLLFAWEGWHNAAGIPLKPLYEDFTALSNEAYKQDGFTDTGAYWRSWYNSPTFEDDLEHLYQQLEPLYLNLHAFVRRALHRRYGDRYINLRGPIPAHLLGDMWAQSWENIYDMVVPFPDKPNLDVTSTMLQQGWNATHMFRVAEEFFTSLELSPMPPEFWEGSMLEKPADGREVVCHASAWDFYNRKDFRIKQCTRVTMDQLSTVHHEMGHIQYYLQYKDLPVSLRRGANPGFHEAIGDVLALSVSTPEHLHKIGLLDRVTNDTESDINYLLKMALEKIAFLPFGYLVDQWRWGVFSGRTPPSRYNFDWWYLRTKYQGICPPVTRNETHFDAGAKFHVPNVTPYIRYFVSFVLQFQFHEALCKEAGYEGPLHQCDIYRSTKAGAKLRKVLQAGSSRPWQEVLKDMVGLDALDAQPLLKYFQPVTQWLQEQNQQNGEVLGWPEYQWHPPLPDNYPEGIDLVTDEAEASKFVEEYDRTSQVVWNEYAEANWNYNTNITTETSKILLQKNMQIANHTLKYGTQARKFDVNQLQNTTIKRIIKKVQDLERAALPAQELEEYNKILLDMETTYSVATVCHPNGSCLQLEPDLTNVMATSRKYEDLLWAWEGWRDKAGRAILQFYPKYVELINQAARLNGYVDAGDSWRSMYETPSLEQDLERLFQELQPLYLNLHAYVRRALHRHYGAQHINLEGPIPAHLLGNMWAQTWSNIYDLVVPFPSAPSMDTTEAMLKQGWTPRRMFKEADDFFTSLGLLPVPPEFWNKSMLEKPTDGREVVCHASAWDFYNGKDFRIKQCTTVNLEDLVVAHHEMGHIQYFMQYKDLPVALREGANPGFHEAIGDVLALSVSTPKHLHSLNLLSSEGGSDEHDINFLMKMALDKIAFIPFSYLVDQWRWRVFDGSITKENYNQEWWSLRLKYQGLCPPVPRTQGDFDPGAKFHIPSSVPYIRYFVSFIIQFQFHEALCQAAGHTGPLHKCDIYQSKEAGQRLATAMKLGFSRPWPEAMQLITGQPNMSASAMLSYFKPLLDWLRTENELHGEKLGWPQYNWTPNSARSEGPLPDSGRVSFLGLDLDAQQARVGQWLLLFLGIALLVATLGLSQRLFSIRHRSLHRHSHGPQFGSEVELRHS
T5 sequence (Q08499 303-809 limits assumed): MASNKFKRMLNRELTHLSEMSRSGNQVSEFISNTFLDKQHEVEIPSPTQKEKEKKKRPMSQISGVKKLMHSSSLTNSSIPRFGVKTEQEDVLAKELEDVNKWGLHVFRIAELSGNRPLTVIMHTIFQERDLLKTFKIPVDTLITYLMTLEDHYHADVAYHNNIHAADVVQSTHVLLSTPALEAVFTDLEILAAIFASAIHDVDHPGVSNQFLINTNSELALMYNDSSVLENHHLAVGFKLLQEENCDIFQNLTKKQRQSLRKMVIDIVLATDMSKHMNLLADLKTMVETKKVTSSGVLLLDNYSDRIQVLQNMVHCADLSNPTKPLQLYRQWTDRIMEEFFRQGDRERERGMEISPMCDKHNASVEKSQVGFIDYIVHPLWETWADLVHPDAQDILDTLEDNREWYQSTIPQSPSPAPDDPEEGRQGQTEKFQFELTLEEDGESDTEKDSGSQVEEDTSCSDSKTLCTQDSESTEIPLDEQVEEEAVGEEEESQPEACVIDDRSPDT

A word on the IC50: it is the concentration that inhibits the measured activity by half. A high value points to a need for much substance. One may read the inhibition as the relative decrease from the control value, in per cent. Consider `CN1C(=O)[C@H](CCCCN)NC(=O)[C@H](CCCN)NCc2cccnc2Sc2c(Cl)ccc(-c3ccc(C(=O)O)cc3)c2CNC(=O)[C@@H]1Cc1c[nH]c2ccccc12` [RO7202110], for which the MIC in the data set on S. aureus ATCC 29213 (setting [5]) and in the data set with C. albicans ATCC 90028 was greater than 64 mg/L in each case. In the data set on HEK293 cells, this molecule displayed a concentration for half-maximal inhibition (IC50) greater than 100 µM. Besides, the Ames entry in the data set “Ames” is on record as “Negative”. Also, the inhibition at 10 µM at Muscarinic receptor M2 was -1%; at Acetylcholinesterase, 40%; in [1] it was 3%; on Monoamine oxidase-A, 11%; at Phosphodiesterase 4D2, -3%. Also, the percent inhibition worked out at 12% with HIV-1 protease, 14% in [2], 11% in [3] and 4% in data set [4].
Take `CN1C(=O)[C@H](CCCN)NC(=O)[C@H](CCCN)NCc2ccccc2Sc2ccccc2CNC(=O)[C@@H]1Cc1c[nH]c2ccccc12` [RO7036668]: the MIC is 32 to 64 mg/L (≈ 48.8 to 97.6 µM) against S. aureus ATCC 29213 (Gram-positive bacteria and yeast); 32 mg/L (≈ 48.8 µM) against S. aureus ATCC 29213 (setting [5]); 64 mg/L (≈ 97.6 µM) in the data set with C. albicans ATCC 90028. The molecule further displayed a half-maximal inhibitory concentration (IC50) in the data set on HEK293 cells greater than 100 µM. The inhibition at 10 µM at Muscarinic receptor M2 was 14%; on Acetylcholinesterase, 9%; in data set [1], -7%; on Monoamine oxidase-A, -2%.
